# Test results published in patent publication US8133901B2, “3-heteroaryl (amino or amido)-1-(biphenyl or phenylthiazolyl) carbonylpiperidine derivatives as orexin receptor inhibitors” (Actelion Pharmaceuticals Ltd., priority 2006, dated 2012).
# Assays:
# human orexin-1 receptor = target: T1, human orexin-1 receptor (Homo sapiens, UniProt O43613); test: Intracellular calcium measurements (FLIPR), orexin receptor antagonistic activity, OX1; type: cell-based; conditions: CHO cells expressing the human orexin-1 receptor; 10 nM orexin-A as agonist; fluo-3 calcium signal
# T1 construct: expressed in transfected cells; host or cells: CHO cells (G418 selection)
# T1 sequence (O43613 1-425): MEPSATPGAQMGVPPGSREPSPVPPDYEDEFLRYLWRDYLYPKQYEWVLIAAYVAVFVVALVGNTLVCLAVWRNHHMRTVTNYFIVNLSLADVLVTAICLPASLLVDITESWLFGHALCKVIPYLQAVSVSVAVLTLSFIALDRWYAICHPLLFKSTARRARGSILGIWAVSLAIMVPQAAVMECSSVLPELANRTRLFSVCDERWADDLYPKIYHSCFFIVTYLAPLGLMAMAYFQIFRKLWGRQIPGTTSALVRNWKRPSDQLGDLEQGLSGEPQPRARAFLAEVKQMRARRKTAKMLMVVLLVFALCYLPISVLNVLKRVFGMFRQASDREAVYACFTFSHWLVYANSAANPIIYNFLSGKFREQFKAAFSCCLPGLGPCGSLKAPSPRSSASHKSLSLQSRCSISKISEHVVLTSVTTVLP
# Method: (§1) The orexin receptor antagonistic activity of the compounds of formula (I) is determined in accordance with the following experimental method.
# (§2) Chinese hamster ovary (CHO) cells expressing the human orexin-1 receptor and the human orexin-2 receptor, respectively, are grown in culture medium (Ham F-12 with L-Glutamine) containing 300 μg/ml G418, 100 U/ml penicillin, 100 μg/ml streptomycin and 10% inactivated fetal calf serum (FCS). The cells are seeded at 80′000 cells/well into 96-well black clear bottom sterile plates (Costar) which have been precoated with 1% gelatine in Hanks' Balanced Salt Solution (HBSS). All reagents are from Gibco BRL. The seeded plates are incubated overnight at 37° C. in 5% CO2.
# (§3) Human orexin-A as an agonist is prepared as 1 mM stock solution in methanol:water (1:1), diluted in HBSS containing 0.1% bovine serum albumin (BSA) and 2 mM HEPES for use in the assay at a final concentration of 10 nM.
# (§4) Antagonists are prepared as 10 mM stock solution in DMSO, then diluted in 96-well plates, first in DMSO, then in HBSS containing 0.1% bovine serum albumin (BSA) and 2 mM HEPES.
# (§5) On the day of the assay, 100 μl of loading medium (HBSS containing 1% FCS, 2 mM HEPES, 5 mM probenecid (Sigma) and 3 μM of the fluorescent calcium indicator fluo-3 AM (1 mM stock solution in DMSO with 10% pluronic acid) (Molecular Probes) is added to each well.
# (§6) The 96-well plates are incubated for 60 min at 37° C. in 5% CO2. The loading solution is then aspirated and cells are washed 3 times with 200 μl HBSS containing 2.5 mM probenecid, 0.1% BSA, 2 mM HEPES. 100 μl of that same buffer is left in each well.
# (§7) Within the Fluorescent Imaging Plate Reader (FLIPR, Molecular Devices), antagonists are added to the plate in a volume of 50 μl, incubated for 20 min and finally 100 μl of agonist is added. Fluorescence is measured for each well at 1 second intervals, and the height of each fluorescence peak is compared to the height of the fluorescence peak induced by 10 nM orexin-A with buffer in place of antagonist. For each antagonist, IC50 value (the concentration of compound needed to inhibit 50% of the agonistic response) is determined.
# human orexin-2 receptor = target: T2, human orexin-2 receptor (Homo sapiens, UniProt O43614); test: Intracellular calcium measurements (FLIPR), orexin receptor antagonistic activity, OX2; type: cell-based; conditions: CHO cells expressing the human orexin-2 receptor; 10 nM orexin-A as agonist; fluo-3 calcium signal
# T2 construct: expressed in transfected cells; host or cells: CHO cells (G418 selection)
# T2 sequence (O43614 1-444): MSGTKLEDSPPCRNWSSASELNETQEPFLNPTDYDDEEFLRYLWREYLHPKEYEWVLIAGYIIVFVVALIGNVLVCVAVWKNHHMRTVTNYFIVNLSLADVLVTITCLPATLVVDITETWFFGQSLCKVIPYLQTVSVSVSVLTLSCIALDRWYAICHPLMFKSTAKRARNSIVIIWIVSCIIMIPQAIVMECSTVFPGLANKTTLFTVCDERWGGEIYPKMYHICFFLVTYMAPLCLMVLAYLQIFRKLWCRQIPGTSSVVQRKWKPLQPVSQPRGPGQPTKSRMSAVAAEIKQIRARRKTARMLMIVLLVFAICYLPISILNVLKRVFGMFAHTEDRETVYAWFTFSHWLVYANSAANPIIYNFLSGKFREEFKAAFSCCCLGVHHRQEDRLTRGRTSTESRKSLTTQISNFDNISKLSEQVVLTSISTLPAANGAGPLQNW
# Method: as §1, §2, §3, §4, §5, §6, §7
SMILES,IC50 (human orexin-1 receptor),IC50 (human orexin-2 receptor)
"O=C(c1ccccc1-c1ccccc1)N1CCC[C@@H](Nc2ncc(Br)cn2)C1 [Example 1, (R)-Biphenyl-2-yl-[3-(5-bromo-pyrimidin-2-ylamino)-piperidin-1-yl]-methanone]",294 nM,392 nM
"Cc1nc(C(=O)N2CCC[C@@H](NC(=O)c3c(C)nc4sccn34)C2)c(-c2ccccc2F)s1 [Example 15, (R)-6-Methyl-imidazo[2,1-b]thiazole-5-carboxylic acid{1-[5-(2-fluoro-phenyl)-2-methyl-thiazole-4-carbonyl]-piperidin-3-yl}-amide]",65 nM,97 nM
"Cc1cccc(-c2sc(C)nc2C(=O)N2CCC[C@@H](NC(=O)c3c(C)nc4sccn34)C2)c1 [Example 7, (R)-6-Methyl-imidazo[2,1-b]thiazole-5-carboxylic acid[1-(2-methyl-5-m-tolyl-thiazole-4-carbonyl)-piperidin-3-yl]-amide]",27 nM,50 nM
"O=C(c1ccccc1-c1ccccc1F)N1CCC[C@@H](Nc2ncc(Br)cn2)C1 [Example 3, (R)-[3-(5-Bromo-pyrimidin-2-ylamino)-piperidin-1-yl]-(2′-fluoro-biphenyl-2-yl)-methanone]",81 nM,171 nM
"Cc1ccc(-c2sc(C)nc2C(=O)N2CCC[C@@H](NC(=O)c3c(C)nc4sccn34)C2)cc1 [Example 9, (R)-6-Methyl-imidazo[2,1-b]thiazole-5-carboxylic acid[1-(2-methyl-5-p-tolyl-thiazole-4-carbonyl)-piperidin-3-yl]-amide]",101 nM,165 nM
